Where a name gives a salt, the structure may show the parent alone.

For orientation: IC50 means the concentration that gives 50% inhibition.

This assay concerns Aβ1-42 production in H4 cells stably transfected with APP751 containing the Swedish mutation. Put plainly: Cellular assay for inhibition of Aβ1-42 production (H4 APP751 SWE clone 8.20). Format: cell-based. The conditions noted are these: 19 h, H4 APP751 SWE clone 8.20 cells, 19 h incubation; read-out: Aβ42 cellular IC50. As to the method:
Cellular Assays for Inhibition of Aβ1-40 and Aβ1-42 Production
H4 cells stably transfected with APP751 containing the Swedish mutation (H4 APP751 SWE clone 8.20, developed at BMS) were maintained in log phase through twice weekly passage at a 1:20 split. […] Following incubation for 19 h in 5% CO2 at 37° C., plates were briefly centrifuged (1000 rpm, 5 min). A 10 μl aliquot from each well was transferred to a second assay plate (Costar 3709) for Aβ40 measurements. Antibody cocktails were freshly prepared by dilution into 40 mM Tris-HCl (pH 7.4) with 0.2% BSA and added to assay plates. For Aβ42 measurements, antibodies specific for the Aβ42 neoepitope (565, developed at BMS; conjugated to the Wallac reagent (Perkin Elmer)) and the N-terminal sequence of Aβ peptide (26D6, developed at SIBIA; conjugated to APC (Perkin Elmer)) were mixed and 20 μl of the mixture was added to each well of the incubated cell plate yielding a final concentration of 0.8 ng/well 565 and 75 ng/well 26D6. For the Aβ40 measurements, antibodies specific for the Aβ40 neoepitope (TSD, developed at BMS; conjugated to the Wallac reagent (Perkin Elmer)) and 26D6 as described above were mixed and 20 μl of the mixture was added to the 10 μl aliquots which had been removed previously from the cell plate yielding a final concentration of 1.6 ng/well TSD and 17.5 ng/well 26D6. Assay plates containing antibodies were sealed with aluminum foil and incubated overnight at 4° C. Signal was determined using a Viewlux counter (Perkin Elmer) and IC50 values determined using curve fitting in CurveMaster (Excel Fit based).
Turning to `C[C@]12N=C(N)SC[C@H]1COc1cc(F)c(NC(=O)c3ccc(Cl)cn3)cc12` (relative stereo) [Example 18, rel-N-((4aR,10bS)-2-Amino-8-fluoro-10b-methyl-4,4a,5,10b-tetrahydrochromeno[4,3-d][1,3]thiazin-9-yl)-5-chloropicolinamide, 2,2,2-trifluoroacetate], the IC50 came out at 6.1 µM.

On to `COc1ccc(-c2cn(-c3ccc4c(c3)[C@@]3(C)N=C(N)SC[C@H]3CCO4)cn2)cc1` (relative stereo) [Example 31, rel-(4aS,11bS)-10-(4-(4-Methoxyphenyl)-1H-imidazol-1-yl)-11b-methyl-4a,5,6,11b-tetrahydro-4H-benzo[2,3]oxepino[4,5-d][1,3]thiazin-2-amine, bis(2,2,2-trifluoroacetate)], for which the IC50 stood at 9.4 µM. For `C[C@]12N=C(N)SC[C@H]1CCCc1ccc(NC(=O)c3ncc(Cl)cc3Cl)cc12` [Example 45a, N-((4aS,11bS)-2-Amino-11b-methyl-4,4a,5,6,7,11b-hexahydrobenzo[6,7]cyclohepta[1,2-d][1,3]thiazin-10-yl)-3,5-dichloropicolinamide] the value was 0.0072 µM; for `C[C@]12N=C(N)SC[C@H]1CCc1ccc(NC(=O)c3ccc(F)cn3)cc12` (relative stereo) [Example 9, rel-N-((4aS,10bS)-2-amino-10b-methyl-4a,5,6,10b-tetrahydro-4H-naphtho[1,2-d][1,3]thiazin-9-yl)-5-fluoropicolinamide, 2,2,2-trifluoroacetate], 2.1 µM.

As to `C[C@]12N=C(N)SC[C@H]1CCc1ccc(-c3cncnc3)cc12` (relative stereo) [Example 5, rel-(4aS,10bS)-10b-Methyl-9-(pyrimidin-5-yl)-4a,5,6,10b-tetrahydro-4H-naphtho[1,2-d][1,3]thiazin-2-amine, bis(2,2,2-trifluoroacetate)], the IC50 came to 4.6 µM. As to `COc1cccnc1Nc1ccc2c(c1)[C@@]1(C)N=C(N)SC[C@H]1CCO2` (relative stereo) [Example 38, rel-(4aS,11bS)—N10-(3-Methoxypyridin-2-yl)-11b-methyl-4a,5,6,11b-tetrahydro-4H-benzo[2,3]oxepino[4,5-d][1,3]thiazine-2,10-diamine, bis(2,2,2-trifluoroacetate)], the IC50 was determined as 1.3 µM. Regarding `Cc1ncc(-c2ccc3c(c2)[C@]2(C)N=C(N)SC[C@@H]2CCO3)s1` [Example 26a, (4aR,11bR)-11b-Methyl-10-(2-methylthiazol-5-yl)-4a,5,6,11b-tetrahydro-4H-benzo[2,3]oxepino[4,5-d][1,3]thiazin-2-amine], the 50% inhibitory concentration (IC50) is 4.5 µM. For `C[C@]12N=C(N)SC[C@H]1CCOc1ccc(NC(=O)c3ccc(F)cn3)cc12` [Example 36a, N-((4aS,11bS)-2-Amino-11b-methyl-4a,5,6,11b-tetrahydro-4H-benzo[2,3]oxepino[4,5-d][1,3]thiazin-10-yl)-5-fluoropicolinamide] the value was 0.017 µM; for `C[C@@]12N=C(N)SC[C@@H]1CCc1ccc(NC(=O)c3ccc(Cl)cn3)cc12` [Example 7a, N-((4aR,10bR)-2-Amino-10b-methyl-4a,5,6,10b-tetrahydro-4H-naphtho[1,2-d][1,3]thiazin-9-yl)-5-chloropicolinamide], 3.5 µM.

As to `C[C@@]12N=C(N)SC[C@@H]1CCOc1ccc(NC(=O)c3ncc(Cl)cc3Cl)cc12` [Example 34b, N-((4aR,11bR)-2-Amino-11b-methyl-4a,5,6,11b-tetrahydro-4H-benzo[2,3]oxepino[4,5-d][1,3]thiazin-10-yl)-3,5-dichloropicolinamide], the IC50 stood at 0.79 µM. Next, `C[C@@]12N=C(N)SC[C@@H]1CCCc1ccc(NC(=O)c3ccc(C#N)cn3)cc12` [Example 44a, N-((4aR,11bR)-2-Amino-11b-methyl-4,4a,5,6,7,11b-hexahydrobenzo[6,7]cyclohepta[1,2-d][1,3]thiazin-10-yl)-5-cyanopicolinamide]: 6.8 µM; `C[C@]12N=C(N)SC[C@H]1COc1cc(F)c(-c3cncnc3)cc12` (relative stereo) [Example 17, rel-(4aR,10bS)-8-Fluoro-10b-methyl-9-(pyrimidin-5-yl)-4,4a,5,10b-tetrahydrochromeno[4,3-d][1,3]thiazin-2-amine, bis(2,2,2-trifluoroacetate)]: 3.2 µM; `C[C@]12N=C(N)SC[C@H]1CCCc1ccc(NC(=O)c3ccc(C#N)cn3)cc12` [Example 44b, N-((4aS,11bS)-2-Amino-11b-methyl-4,4a,5,6,7,11b-hexahydrobenzo[6,7]cyclohepta[1,2-d][1,3]thiazin-10-yl)-5-cyanopicolinamide]: 0.021 µM. Next, `C[C@]12N=C(N)SC[C@H]1CCOc1ccc(-c3cncnc3)cc12` (relative stereo) [Example 27, rel-(4aS,11bS)-11b-methyl-10-(pyrimidin-5-yl)-4a,5,6,11b-tetrahydro-4H-benzo[2,3]oxepino[4,5-d][1,3]thiazin-2-amine, bis(2,2,2-trifluoroacetate)]: 2.9 µM; `C[C@]12N=C(N)SC[C@H]1CCOc1ccc(-c3cncc4ccccc34)cc12` (relative stereo) [Example 29, rel-(4aS,11bS)-10-(isoquinolin-4-yl)-11b-methyl-4a,5,6,11b-tetrahydro-4H-benzo[2,3]oxepino[4,5-d][1,3]thiazin-2-amine, bis(2,2,2-trifluoroacetate)]: 4.6 µM; `C[C@@]12N=C(N)SC[C@@H]1CCCc1ccc(NC(=O)c3ccc(Cl)cn3)cc12` [Example 3b, 5-Chloro-pyridine-2-carboxylic acid ((4aR,11bR)-2-amino-11b-methyl-4,4a,5,6,7,11b-hexahydro-3-thia-1-aza-dibenzo[a,c]cyclohepten-10-yl)-amide]: 6.7 µM. For `C[C@]12N=C(N)SC[C@H]1CCc1ccc(-c3cn[nH]c3)cc12` (relative stereo) [Example 19, rel-(4aS,10bS)-10b-Methyl-9-(1H-pyrazol-4-yl)-4a,5,6,10b-tetrahydro-4H-naphtho[1,2-d][1,3]thiazin-2-amine, bis(2,2,2-trifluoroacetate)] the value was 8 µM; for `CC#Cc1cncc(-c2ccc3c(c2)[C@@]2(C)N=C(N)SC[C@H]2CCO3)c1` [Example 22b, (4aS,11bS)-11b-Methyl-10-(5-(prop-1-yn-1-yl)pyridin-3-yl)-4a,5,6,11b-tetrahydro-4H-benzo[2,3]oxepino[4,5-d][1,3]thiazin-2-amine], 1.4 µM. In the case of `C[C@]12N=C(N)SC[C@H]1CCOc1ccc(-c3c[nH]c4ccccc34)cc12` (relative stereo) [Example 30, rel-(4aS,11bS)-10-(1H-indol-3-yl)-11b-methyl-4a,5,6,11b-tetrahydro-4H-benzo[2,3]oxepino[4,5-d][1,3]thiazin-2-amine, 2,2,2-trifluoroacetate salt], the concentration for half-maximal inhibition (IC50) was 16 µM. Take `C[C@]12N=C(N)SC[C@H]1CCCc1cc(F)c(-c3cncnc3)cc12` (relative stereo) [Example 47, rel-(4aS,11bS)-9-fluoro-11b-methyl-10-(pyrimidin-5-yl)-4,4a,5,6,7,11b-hexahydrobenzo[6,7]cyclohepta[1,2-d][1,3]thiazin-2-amine, bis(2,2,2-trifluoroacetate)]: the half-maximal inhibitory concentration (IC50) worked out at 2.7 µM.

The values are drawn from patent US8604024B2, “Compounds for the reduction of beta-amyloid production” (Bristol-Myers Squibb Company, priority 2011, dated 2013).
